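Cells were grown in 96-well plates and exposed to each compound for 48 hours at five concentrations; endpoints were interpolated linearly between bracketing concentrations, or set to the highest concentration if not reached. The concentration for full growth arrest is given as TGI.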
Experiments:
Experiment in all cases: DTP human tumour cell line panel, 48 h
[1] = system: A549 NSCLC
[2] = system: ACHN renal
[3] = system: BT-549 breast
[4] = system: HOP-92 NSCLC
[5] = system: IGROV1 ovarian
[6] = system: MCF7 breast
[7] = system: MDA-MB-435
[8] = system: MOLT-4 leukemia
[9] = system: NCI-H460 lung
[10] = system: SF-268 CNS
[11] = system: SK-MEL-28 melanoma
[12] = system: SN12C renal
[13] = system: SNB-75 CNS
[14] = system: SR leukemia
[15] = system: U251 CNS

SMILES	TGI [1] [µM]	TGI [2] [µM]	TGI [3] [µM]	TGI [4] [µM]	TGI [5] [µM]	TGI [6] [µM]	TGI [7] [µM]	TGI [8] [µM]	TGI [9] [µM]	TGI [10] [µM]	TGI [11] [µM]	TGI [12] [µM]	TGI [13] [µM]	TGI [14] [µM]	TGI [15] [µM]
O=C(CC(=O)c1ccncc1)c1ccccc1	> 100	> 100	> 100	> 100	> 100	> 100	> 100	> 100	> 100	> 100	> 100	> 62.5	> 100	> 100	> 100
O=C(Nc1ccc(Cl)cc1)c1cc(S(=O)(=O)Nc2n[nH]c(=O)[nH]2)c(SSc2cc(Cl)c(C(=O)Nc3ccc(Cl)cc3)cc2S(=O)(=O)Nc2n[nH]c(=O)[nH]2)cc1Cl	> 100	> 100	> 100	> 100	> 100	> 100	> 100	> 100	> 100	> 100	> 100	> 100	> 100	> 100	> 100
O=C1C(NS(=O)(=O)c2ccccc2)=C(n2cnc3ccccc32)C(=O)c2ccccc21	> 100	> 100	> 100	> 100	> 100	> 100	> 100	> 100	> 100	> 100	> 100	> 100	85	> 100	> 100
COC(=O)C12CCC(C(=O)OC)(Cc3c(c4ccccc4n3S(=O)(=O)c3ccccc3)C1)C2=O (stereo not given)	> 100	> 100	> 100	> 100	> 100	> 100	> 100	> 100	> 100	> 100	> 100	> 100	> 100	> 100	> 100
O=c1oc2ncccc2n1Cc1ccc([N+](=O)[O-])cc1	> 100	> 100	> 100	> 100	> 100	> 100	> 100	> 100	> 100	> 100	> 100	> 100	> 100	> 100	> 100
c1ccc(Cc2cccc3cc(-c4ccc(-c5ccccc5)cc4)[nH]c23)cc1	> 100	> 100	> 100	> 100	> 100	> 100	> 100	> 100	> 100	> 100	> 100	> 100	> 100	47	> 100
O=[N+]([O-])c1cc2n[nH]nc2c2nonc12	> 100	67.6	24.1	> 100	> 100	21.5	30.1	95.6	> 100	> 100	> 100	> 100	> 100	> 100	> 100
COc1cc2c(cc1C)NC(=O)/C2=C/c1c(Cl)[nH]c2cc(C)c(OC)cc12	28.7	18.4	9.92	23.7	16.1	20.4	8.49	17.8	5.71	18.7	24	8.18	11.8	12	15.3
COc1ccc(C2CCc3nc4nc(N)nc(N)c4cc3C2)cc1 (stereo not given)	> 100	22	70.6	9.31	37.9	28.8	78.2	65.3	> 100	> 100	65	59.5	5.09	67.3	29.4
CS(C)(=O)=N/C=C\C(=O)C(Cl)(Cl)Cl	> 100	> 100	> 100	> 100	> 100	> 100	> 100	> 100	> 100	> 100	> 100	> 100	> 100	> 100	> 100
CC1=C(C)C(=O)OC(C(C)(O)C2(O)CCC3(O)C4CC(Cl)C5(O)C(O)C=CC(=O)C5(C)C4CCC32C)C1 (stereo not given)	> 100	> 100	> 100	> 100	> 100	> 100	> 100	32.8	> 100	> 100	> 100	> 100	> 100	37.1	> 100
